According to ChEMBL document CHEMBL1123697, “Heteroatom-activated beta-lactam antibiotics: considerations of differences in the biological activity of [[3(S)-(acylamino)-2-oxo-1-azetidinyl]oxy]acetic acids (oxamazins) and the corresponding sulfur analogues (thiamazins)” (J Med Chem, 1987):

Tests used:
Format in all cases: ADME
Conditions in all cases: buffer
[1] = Half life at pH 11
[2] = Pseudo first order rate constant for the alkaline hydrolysis of beta-lactams (35 degree Celsius) was determined at pH 11
[3] = Half life at pH 10
[4] = Pseudo first order rate constant for the alkaline hydrolysis of beta-lactams (35 degree Celsius) was determined at pH 10

Compound | half-life [1] [h] | k [2] [h⁻¹] | half-life [3] [h] | k [4] [h⁻¹]
C[C@@H]1NC(=O)[C@H]1NC(=O)OCc1ccccc1 | 24 | 0.029 | – | –
C[C@H]1[C@H](NC(=O)Cc2ccccc2)C(=O)N1OCC(=O)O | – | – | 2.2 | 0.31
C[C@H]1[C@H](NC(=O)Cc2ccccc2)C(=O)N1SCC(=O)[O-].[K+] | – | – | 0.95 | 0.73
C[C@H]1[C@H](NC(=O)/C(=N\OC(C)(C)C(=O)O)c2csc(N)n2)C(=O)N1S(=O)(=O)O [AZTREONAM] | – | – | – | 0.4
